# Source: PubChem BioAssay (NCI)
#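 Results reflect a 48-hour exposure of cells in 96-well plates to compound at five concentrations. TGI: total growth inhibition.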
# Legend:
# Test in all cases: NCI-60 cell line screen, 48 h
# [1] = tested on: COLO 205 colon
# [2] = tested on: ACHN renal
# [3] = tested on: SN12C renal
# [4] = tested on: OVCAR-3 ovarian
# [5] = tested on: UO-31 renal
# [6] = tested on: UACC-257 melanoma
# [7] = tested on: LOX IMVI melanoma
# [8] = tested on: SF-295 CNS
# [9] = tested on: NCI-H460 lung
# [10] = tested on: SNB-19 CNS
# [11] = tested on: A549 NSCLC
# [12] = tested on: SK-MEL-28 melanoma
# [13] = tested on: HT29 colon
# [14] = tested on: M14 melanoma
# [15] = tested on: SF-268 CNS
# [16] = tested on: SK-MEL-5 melanoma
# [17] = tested on: UACC-62 melanoma
# [18] = tested on: IGROV1 ovarian
# [19] = tested on: KM12 colon
# [20] = tested on: DMS 273 small cell lung
# [21] = tested on: SF-539 CNS
# [22] = tested on: HOP-62 NSCLC
# [23] = tested on: OVCAR-5 ovarian
# [24] = tested on: M19-MEL melanoma
# [25] = tested on: CAKI-1 renal
# [26] = tested on: NCI-H226 lung
# [27] = tested on: OVCAR-4 ovarian
# [28] = tested on: HCT-116 colon
# [29] = tested on: TK-10 renal
# [30] = tested on: MALME-3M melanoma
# [31] = tested on: SK-MEL-2 melanoma
# [32] = tested on: HOP-18 NSCLC
# [33] = tested on: DLD-1 colon
# [34] = tested on: HCC-2998 colon
# [35] = tested on: EKVX NSCLC
# [36] = tested on: XF 498 CNS
# [37] = tested on: SNB-78 CNS
# [38] = tested on: RXF 393 renal
# [39] = tested on: NCI-H23 lung
# [40] = tested on: HOP-92 NSCLC
# [41] = tested on: DMS 114 small cell lung
# [42] = tested on: OVCAR-8 ovarian
# [43] = tested on: U251 CNS
# [44] = tested on: HCT-15 colon
# [45] = tested on: SNB-75 CNS
# [46] = tested on: HL-60(TB) leukemia
# [47] = tested on: SW-620 colon
# [48] = tested on: CCRF-CEM leukemia
# [49] = tested on: 786-0 renal
# [50] = tested on: A498 renal
# [51] = tested on: K-562 leukemia
# [52] = tested on: MOLT-4 leukemia
# [53] = tested on: SK-OV-3 ovarian
# [54] = tested on: KM20L2 colon
# [55] = tested on: RXF-631 renal
# [56] = tested on: RPMI-8226 leukemia
# [57] = tested on: NCI-H522 lung
# [58] = tested on: LXFL 529 NSCLC
# [59] = tested on: SR leukemia
structure (smiles),measurement,setting,value
COCCOCOc1ccc(OCOCCOC)c2c1C(=O)c1ccccc1C2=O,TGI,[1],> 100 µM
same,TGI,[2],> 100 µM
same,TGI,[3],> 100 µM
same,TGI,[4],> 100 µM
same,TGI,[5],> 100 µM
same,TGI,[6],> 88.9 µM
same,TGI,[7],> 100 µM
same,TGI,[8],> 100 µM
same,TGI,[9],> 100 µM
same,TGI,[10],> 100 µM
same,TGI,[11],> 100 µM
same,TGI,[12],> 100 µM
same,TGI,[13],> 100 µM
same,TGI,[14],> 100 µM
same,TGI,[15],> 100 µM
same,TGI,[16],> 100 µM
same,TGI,[17],> 100 µM
same,TGI,[18],> 100 µM
same,TGI,[19],> 100 µM
same,TGI,[20],> 100 µM
same,TGI,[21],> 100 µM
same,TGI,[22],> 100 µM
same,TGI,[23],> 100 µM
same,TGI,[24],39 µM
same,TGI,[25],> 93 µM
same,TGI,[26],> 100 µM
same,TGI,[27],> 100 µM
same,TGI,[28],> 85.4 µM
same,TGI,[29],> 100 µM
same,TGI,[30],> 100 µM
same,TGI,[31],> 100 µM
same,TGI,[32],> 100 µM
same,TGI,[33],> 100 µM
same,TGI,[34],> 100 µM
same,TGI,[35],> 100 µM
same,TGI,[36],> 100 µM
same,TGI,[37],> 100 µM
same,TGI,[38],> 100 µM
same,TGI,[39],> 100 µM
same,TGI,[40],> 100 µM
same,TGI,[41],37.3 µM
same,TGI,[42],> 100 µM
same,TGI,[43],> 100 µM
same,TGI,[44],> 100 µM
same,TGI,[45],> 100 µM
same,TGI,[46],> 100 µM
same,TGI,[47],> 100 µM
same,TGI,[48],> 100 µM
same,TGI,[49],> 100 µM
same,TGI,[50],> 100 µM
same,TGI,[51],> 100 µM
same,TGI,[52],> 100 µM
same,TGI,[53],> 100 µM
same,TGI,[54],> 100 µM
Cc1cc2c(c(C(=O)O)c1C)-c1cccc(F)c1C2=O,TGI,[1],> 100 µM
same,TGI,[2],> 100 µM
same,TGI,[3],> 100 µM
same,TGI,[4],> 100 µM
same,TGI,[5],66.1 µM
same,TGI,[6],> 100 µM
same,TGI,[7],> 100 µM
same,TGI,[8],> 100 µM
same,TGI,[9],> 100 µM
same,TGI,[10],> 100 µM
same,TGI,[11],> 100 µM
same,TGI,[55],> 100 µM
same,TGI,[12],> 100 µM
same,TGI,[13],> 100 µM
same,TGI,[14],> 100 µM
same,TGI,[15],> 100 µM
same,TGI,[16],> 100 µM
same,TGI,[17],> 100 µM
same,TGI,[18],> 100 µM
same,TGI,[19],> 100 µM
same,TGI,[20],> 100 µM
same,TGI,[22],> 100 µM
same,TGI,[23],> 100 µM
same,TGI,[24],> 100 µM
same,TGI,[25],> 100 µM
same,TGI,[26],> 100 µM
same,TGI,[56],> 100 µM
same,TGI,[27],> 100 µM
same,TGI,[29],> 100 µM
same,TGI,[57],> 100 µM
same,TGI,[30],> 100 µM
same,TGI,[31],> 100 µM
same,TGI,[58],> 100 µM
same,TGI,[33],> 100 µM
same,TGI,[34],> 100 µM
same,TGI,[35],> 100 µM
same,TGI,[36],> 100 µM
same,TGI,[37],> 100 µM
same,TGI,[38],> 100 µM
same,TGI,[39],> 100 µM
same,TGI,[41],> 100 µM
same,TGI,[42],> 100 µM
same,TGI,[43],> 100 µM
same,TGI,[44],> 100 µM
same,TGI,[45],> 100 µM
same,TGI,[47],> 100 µM
same,TGI,[48],> 100 µM
same,TGI,[49],> 100 µM
same,TGI,[51],> 100 µM
same,TGI,[52],> 100 µM
same,TGI,[53],> 100 µM
same,TGI,[54],> 100 µM
CCOC1=C2N=C(Cc3ccccc3F)N=C2C(=O)c2ccccc21,TGI,[1],> 100 µM
same,TGI,[2],> 100 µM
same,TGI,[3],> 100 µM
same,TGI,[4],> 100 µM
same,TGI,[5],> 100 µM
same,TGI,[6],> 100 µM
same,TGI,[8],> 100 µM
same,TGI,[9],> 100 µM
same,TGI,[10],> 100 µM
same,TGI,[11],> 100 µM
same,TGI,[12],> 100 µM
same,TGI,[13],> 100 µM
same,TGI,[14],> 100 µM
same,TGI,[15],> 100 µM
same,TGI,[17],> 100 µM
same,TGI,[19],> 100 µM
same,TGI,[20],> 100 µM
same,TGI,[21],> 100 µM
same,TGI,[22],> 100 µM
same,TGI,[24],> 100 µM
same,TGI,[25],> 100 µM
same,TGI,[26],> 100 µM
same,TGI,[56],> 100 µM
same,TGI,[27],> 100 µM
same,TGI,[28],> 100 µM
same,TGI,[57],> 100 µM
same,TGI,[30],> 100 µM
same,TGI,[31],> 100 µM
same,TGI,[58],> 100 µM
same,TGI,[32],> 100 µM
same,TGI,[33],> 100 µM
same,TGI,[34],> 100 µM
same,TGI,[35],> 100 µM
same,TGI,[36],> 100 µM
same,TGI,[38],> 100 µM
same,TGI,[39],> 100 µM
same,TGI,[40],> 100 µM
same,TGI,[41],> 100 µM
same,TGI,[42],> 100 µM
same,TGI,[43],> 100 µM
same,TGI,[44],> 100 µM
same,TGI,[45],> 100 µM
same,TGI,[46],> 100 µM
same,TGI,[47],> 100 µM
same,TGI,[59],> 100 µM
same,TGI,[48],> 100 µM
same,TGI,[49],> 100 µM
same,TGI,[51],> 100 µM
same,TGI,[52],> 100 µM
same,TGI,[54],> 100 µM
Cc1cc(N(CCC#N)CCC#N)ccc1/C=C1/N=C(c2ccccc2)N(N)C1=O,TGI,[1],> 100 µM
same,TGI,[2],> 100 µM
same,TGI,[3],> 100 µM
same,TGI,[4],> 100 µM
same,TGI,[5],> 100 µM
same,TGI,[6],> 100 µM
same,TGI,[7],> 100 µM
same,TGI,[8],> 100 µM
same,TGI,[10],> 100 µM
same,TGI,[11],> 100 µM
same,TGI,[12],> 100 µM
same,TGI,[13],> 100 µM
same,TGI,[14],> 100 µM
same,TGI,[15],> 100 µM
same,TGI,[16],> 100 µM
same,TGI,[17],> 100 µM
same,TGI,[18],> 100 µM
same,TGI,[19],> 100 µM
same,TGI,[20],> 100 µM
same,TGI,[21],> 100 µM
same,TGI,[22],> 100 µM
same,TGI,[23],> 100 µM
same,TGI,[24],> 100 µM
same,TGI,[25],> 100 µM
same,TGI,[26],> 100 µM
same,TGI,[56],> 100 µM
same,TGI,[27],> 100 µM
same,TGI,[28],> 100 µM
same,TGI,[29],> 100 µM
same,TGI,[57],92.1 µM
same,TGI,[30],> 100 µM
same,TGI,[31],> 100 µM
same,TGI,[58],> 100 µM
same,TGI,[33],> 100 µM
same,TGI,[34],> 100 µM
same,TGI,[35],> 100 µM
same,TGI,[36],> 100 µM
same,TGI,[39],> 100 µM
same,TGI,[40],99.9 µM
same,TGI,[41],> 100 µM
same,TGI,[42],> 100 µM
same,TGI,[43],> 100 µM
same,TGI,[44],> 100 µM
same,TGI,[45],64.9 µM
same,TGI,[46],> 100 µM
same,TGI,[47],> 100 µM
same,TGI,[48],> 100 µM
same,TGI,[49],> 100 µM
same,TGI,[50],> 100 µM
same,TGI,[51],> 100 µM
same,TGI,[52],> 100 µM
same,TGI,[53],> 100 µM
same,TGI,[54],> 100 µM
